In patent US20070003510A1, “Preparations containing an extract of eperua falcata and/or constituents of the latter” (priority 2003, published 2007):

Experiments:
Type in all cases: cell-based
[1] = test system: CGRP; experiment: Quantity of neuropeptide CGRP released by neurone culture, ELISA (spontaneous, KCl- or capsaicin-stimulated); details: KCl 40 mM alone, 20 mins; based on the standard (no test substance) = 100
[2] = test system: human PMNs; experiment: Respiratory burst: reactive oxygen compounds (ROS) of zymosan-activated human PMNs, luminol luminescence; details: for Content of reactive oxygen compounds (ROS) (% versus control): 24 h incubation, zymosan activation; for Effectiveness in suppressing inflammatory processes: in words, effectiveness increases with the quantity used
Text: In the course of cutaneous inflammation, leucocytes, for example polymorphonuclear neutrophilic granulocytes (PMNs), are attracted and stimulated by peptides, such as cytokines and other messenger substances such as, for example, leudotrienes released from activated or necrotic cells in the dermis. These stimulated PMNs secrete not only pro-inflammatory cytokines, leucotrienes and proteases, but also reactive oxygen compounds (ROS), such as superoxides and hypochlorite anions for example. This is done to destroy pathogenic bacteria or fungi. This activity of the PMNs is known as respiratory burst and intensifies the inflammation reaction and causes tissue damage through released ROS and lysosomal enzymes.
Particulars of the test procedure can be found in the article by Kapp et al. entitled “The role of immunomodulating cytokines, activation of the oxidative metabolism in human polymorphonuclear neutrophilic granulocytes, Journal of Investigative Dermatology, Vol. 95, pages 94S to 99S, 1990”.
A suspension of human PMNs (1 million cells per milliliter) was exposed to the substances to be tested (incubation for 24 h at 37° C. in an atmosphere containing 5% by volume CO2). The number of PMN cells was determined. The PMNs were activated with 0.1 ml zymosan (an insoluble carbohydrate from the cell wall of yeast), followed by incubation for 0.5 h at 37° C. in an atmosphere containing 5% by volume CO2).
The results are set out in the following Table (% by comparison with the control test). The quantity of ROS was measured with luminol; luminescence was determined for 60 seconds.

[3] = test system: human keratinocytes; experiment: Protection against UV-B radiation: LDH release from human keratinocytes; details: 0.003%, UV-B 50 mJ/cm^2, UV-B alone = 100, no UV-B = 0
Description: In cultured human cells, these effects of UV-B radiation on the cell membranes are associated with the release of a cytoplasmatic enzyme into the supernatant solution. This cytoplasmatic enzyme is lactate dehydrogenase or LDH (B. Bonnekoh, B. Farkas, J. Geisel and G. Mahrle, Lactate dehydrogenase release as an indicator of dithranol-induced membrane injury in cultured human keratinocytes, Dermatological Research (1990), Vol. 282, pages 325-331).
(§1) Human keratinocytes were incubated for three days at 37° C. in an atmosphere containing 5% by volume carbon dioxide (standard nutrient medium containing foetal calf serum (FCS)). The nutrient medium was then replaced by an isotonic common salt solution containing the substance to be tested (astilbin or engeletin). The keratinocytes were exposed to UV-B radiation (50 mJ/cm^2, DUKE GL40E lamp), followed by incubation for one day at 37° C. in an atmosphere containing 5% by volume carbon dioxide. The supernatant nutrient medium was spectroscopically analyzed for LDH2 and PEG2 by the ELISA method.
(§2) The results are set out in the following Table (% by comparison with the control test).

[4] = test system: PGE2; experiment: Protection against UV-B radiation: PGE2 release from human keratinocytes, ELISA; details: 0.003%, UV-B 50 mJ/cm^2, UV-B alone = 100, no UV-B = 0
Text: UV-B radiation (wavelength 280 to 320 nm) causes inflammation of the skin, mainly by activation of an enzyme (phospholipase A2 or PLA2) which releases arachidonic acid from the cell membrane (V. A. De Leo, D. Hanson, I. B. Weinstein and L. C. Harber, Ultraviolet radiation stimulates the release of arachidonic acid from mammalian cells in culture, Photochemistry and Photobiology (1985), Vol. 41, No. 1, pages 51 to 56). Other enzymes (so-called cyclo-oxygenases) then convert the arachidonic acid into active components, so-called prostaglandin (PG for short). The prostaglandin is secreted by the cells. The fixing of certain prostaglandins (PGE2) to specific receptors of the skin leads to reddening and swelling of the skin in the same way as sunburn does.
as §1, §2

Row | SMILES | CGRP [1] | Content of reactive oxygen compounds (ROS) (% versus control) ([2]; dose 0.0003%) | Content of reactive oxygen compounds (ROS) (% versus control) ([2]; dose 0.001%) | Content of reactive oxygen compounds (ROS) (% versus control) ([2]; dose 0.003%) | Effectiveness in suppressing inflammatory processes [2] | Quantity of LDH in %/(control without UV-B exposure) [3] [%] | Quantity of LDH in %/(control without UV-B exposure) ([3]; listed as astilbin) | Quantity of PGE2 in %/(control without UV-B exposure) [4] [%] | Quantity of PGE2 in %/(control without UV-B exposure) ([4]; listed as astilbin) | Content of reactive oxygen compounds (ROS) (% versus control) ([2]; dose 0.01%) | Quantity of LDH in %/(control without UV-B exposure) ([3]; listed as engeletin) | Quantity of PGE2 in %/(control without UV-B exposure) ([4]; listed as engeletin)
1 | [Cl-].[K+] [KCl, potassium chloride] | 554 ± 8 | – | – | – | – | – | – | – | – | – | – | –
2 | C[C@@H]1O[C@@H](O[C@H]2C(=O)c3c(O)cc(O)cc3O[C@@H]2c2ccc(O)c(O)c2)[C@H](O)[C@H](O)[C@H]1O [Pure astilbin, astilbin] | – | 47 | 26 | 14 | very effective | 58 | reduced | 58 | reduced | – | – | –
3 | CC1OC(OC2C(=O)c3c(O)cc(O)cc3OC2c2ccc(O)cc2)C(O)C(O)C1O (centres unmarked) [Pure engeletin, engeletin] | – | – | 65 | 50 | very effective | 47 | – | 35 | – | 25 | the effect is not as pronounced | the effect is not as pronounced
